Results reported in patent US20230390267A1, “TREATMENT REGIMENS FOR EARLY IDIOPATHIC PARKINSON'S DISEASE” (BIAL - PORTELA & CA., S.A., priority 2020, published 2023).
Where two headings read alike, the source gives them in different places.

Key:
[1] = test system: patients with early idiopathic Parkinson's disease treated with levodopa/DDCI, with no signs of motor complications; assay: EPSILON Phase III double-blind placebo-controlled study, efficacy; format: in vivo, human
Text: The primary endpoint was the change from baseline to end of double-blind period in MDS-UPDRS Part III (motor) scores, and secondary outcomes assessed non-motor symptoms, quality of life and global clinical impressions of change.
Subjects were between 30 and 80 years of age, inclusive, diagnosed with early idiopathic Parkinson's disease according to the United Kingdom Parkinson's Disease Society Brain Bank Clinical Diagnostic Criteria within the previous 5 years, with disease severity stage 1-2.5 (according to modified Hoehn & Yahr staging) and a MDS-UPDRS Part III score>20. Alternatively, the subjects were diagnosed with early idiopathic Parkinson's disease according to the […] within the previous 5 years, with disease severity stage 1-2.5 (according to modified Hoehn & Yahr staging) and a MDS-UPDRS Part III score>20.
322 subjects completed the double-blind phase (FIG. 10).
Study treatment was administered in combination with the subject's existing treatment of levodopa/DDCI.
The primary efficacy parameter, change from baseline (Visit 2) in MDS-UPDRS Part III total score at the end of the double-blind period (Visit 9), was analyzed using a Mixed Model Repeated Measures (MMRM) approach with fixed effects for baseline, center/country, (randomized) treatment, visit, treatment by visit interaction and baseline by visit interaction, and subject as a random effect. Difference between treatment groups (opicapone versus placebo) was estimated from the model.
A similar MMRM analysis used for the primary endpoint was used for relevant secondary efficacy endpoints in the double-blind period. The secondary endpoints included: • Change from baseline (Visit 2) to post-baseline visits during the double-blind trial in: • MDS-UPDRS scores: Parts I, II, III and IV, and Part II+III total • Modified Hoehn & Yahr staging total score during maximum ‘ON’ response • Schwab and England scale score • Parkinson's Disease Sleep Scale 2 (PDSS-2) total score • MDS-Non-motor Symptom Scale (MDS-NMSS) total and subdomain scores • Parkinson's Disease Questionnaire (PDQ-39) total and subdomain scores • 9-item Wearing-off questionnaire (WOQ9) total and sub-section (motor and non-motor) scores • Clinical Global Impression of Improvement (CGI-I) • Patient's Global Impression of Improvement (PGI-I)
The proportion of subjects with an improvement from baseline in CGI-I (preferably relative to before the beginning of treatment) and PGI-I (preferably relative to their admission to the study) scores at the end of the double blind period (Visit 9) endpoint was analysed using logistic regression, with (randomized) treatment included in the model.

[2] = test system: patients with early idiopathic Parkinson's disease treated with levodopa/DDCI, with no signs of motor complications; settings: human, in vivo, 24 weeks
Text: The term “treatment-emergent adverse event” is defined as any event not present before exposure to the study drug or any event already present that worsens in either intensity or frequency after first intake of study drug until 2 weeks after last intake of the study drug.
The factors evaluated include: • Treatment-emergent adverse events (TEAEs) including serious adverse events (SAEs) • Laboratory safety tests (biochemistry, hematology, coagulation and urinalysis) • Physical and neurological examinations • Vital signs • 12-lead ECG readings • Columbia-Suicide Severity Rating Scale (C-SSRS) • Modified Minnesota Impulsive Disorders Interview (mMIDI)

[3] = test system: PD patients with motor fluctuations; settings: cited from earlier work; for mean treatment effect versus placebo on absolute daily OFF-time: double-blind
[4] = test system: PD patients with motor fluctuations (Japanese population); settings: p<0.05, cited from earlier work
[5] = test system: patients who switched from entacapone to opicapone or had lack of efficacy or adverse events with entacapone; settings: patients who continued with opicapone beyond 6 months; cited from earlier work
[6] = test system: PD patients with motor fluctuations; settings: cited from earlier work
[7] = cited from earlier work
[8] = adjunct opicapone to levodopa/benserazide, cited from earlier work
erythrocyte COMT = settings: cynomolgus monkey; cited from earlier work
[9] = oral opicapone with levodopa; evident 24 hours after drug administration; cited from earlier work
S-COMT = settings: peripheral tissues; cited from earlier work

Cc1c(Cl)c(C)[n+]([O-])c(Cl)c1-c1noc(-c2cc(O)c(O)c([N+](=O)[O-])c2)n1 [opicapone, 2,5-dichloro-3-[5-(3,4-dihydroxy-5-nitrophenyl)-1,2,4-oxadiazol-3-yl]-4,6-dimethylpyridine 1-oxide]
MDS-UPDRS Part III total score, change from baseline, LS mean, estimates from MMRM ([1]; OPC 50 mg once daily + L-DOPA/DDCI, Week 24): −6.5
MDS-UPDRS Part III total score, Change from Baseline, Mean ([1]; OPC 50 mg once daily + L-DOPA/DDCI, baseline to 24 weeks): −5.8
MDS-UPDRS Part III total score, Week 24, Mean ([1]; OPC 50 mg once daily + L-DOPA/DDCI, double-blind, Week 24, N = 176): 27.2
MDS-UPDRS Part III total score, LS Mean Diff. (SE) vs placebo, MMRM ([1]; OPC 50 mg vs placebo, Week 2): −0.8 (0.8)
MDS-UPDRS Part II + III total score, LS Mean Diff. (SE) vs placebo ([1]; OPC 50 mg vs placebo, Week 4): −1.4 (0.9)
MDS-UPDRS Part II total score, LS Mean Diff. (SE) vs placebo ([1]; OPC 50 mg vs placebo, Week 4): −0.2 (0.3)
MDS-UPDRS Part III total score, LS Mean Diff. (SE) vs placebo, MMRM ([1]; OPC 50 mg vs placebo, Week 4): −1.2 (0.8)
MDS-UPDRS Part II + III total score, LS Mean Diff. (SE) vs placebo ([1]; OPC 50 mg vs placebo, Week 12): −1.7 (1.06)
MDS-UPDRS Part II total score, LS Mean Diff. (SE) vs placebo ([1]; OPC 50 mg vs placebo, Week 12): −0.2 (0.4)
MDS-UPDRS Part III total score, LS Mean Diff. (SE) vs placebo, MMRM ([1]; OPC 50 mg vs placebo, Week 12): −1.7 (0.9)
MDS-UPDRS Part I total score, LS Mean Diff. (SE) vs placebo ([1]; OPC 50 mg vs placebo, Week 24): −0.2 (0.4)
MDS-UPDRS Part II + III total score, LS Mean Diff. (SE) vs placebo ([1]; OPC 50 mg vs placebo, Week 24): −2.8 (1.3)
MDS-UPDRS Part II total score, LS Mean Diff. (SE) vs placebo ([1]; OPC 50 mg vs placebo, Week 24): −0.7 (0.4)
MDS-UPDRS Part III total score, LS Mean Diff. (SE) vs placebo, MMRM ([1]; OPC 50 mg vs placebo, Week 24): −2.2 (0.9)
MDS-UPDRS Part IV total score, LS Mean Diff. (SE) vs placebo ([1]; OPC 50 mg vs placebo, Week 24): −0.11 (0.1)
PDQ-39 total score, LS Mean Diff. (SE) vs placebo ([1]; OPC 50 mg vs placebo, Week 24): −0.26 (0.77)
PDSS-2 total score, LS Mean Diff. (SE) vs placebo ([1]; OPC 50 mg vs placebo, Week 24): −1.5 (0.7)
MDS-UPDRS Part III total score, Change to Week 2, LS mean ([1]; OPC 50 mg, Week 2): −4.6
MDS-UPDRS Part II + III total score, Change to Week 4, LS mean ([1]; OPC 50 mg, Week 4): −7.3
MDS-UPDRS Part II total score, Change to Week 4, LS mean ([1]; OPC 50 mg, Week 4): −0.8
MDS-UPDRS Part III total score, Change to Week 4, LS mean ([1]; OPC 50 mg, Week 4): −6.0
MDS-UPDRS Part II + III total score, Change to Week 12, LS mean ([1]; OPC 50 mg, Week 12): −7.4
MDS-UPDRS Part II total score, Change to Week 12, LS mean ([1]; OPC 50 mg, Week 12): −0.7
MDS-UPDRS Part III total score, Change to Week 12, LS mean ([1]; OPC 50 mg, Week 12): −6.2
MDS-UPDRS Part I total score, change from baseline, LS mean, MMRM ([1]; OPC 50 mg, Week 24): 0.4
MDS-UPDRS Part II + III total score, change from baseline, LS mean, MMRM ([1]; OPC 50 mg, Week 24): −7.4
MDS-UPDRS Part II total score, change from baseline, LS mean, MMRM ([1]; OPC 50 mg, Week 24): −0.4
MDS-UPDRS Part IV total score, change from baseline, LS mean (SE), MMRM ([1]; OPC 50 mg, Week 24): 0.3 (0.1)
NMSS, change from baseline, LS mean, MMRM ([1]; OPC 50 mg, Week 24): −1.4
PDQ-39 total score, change from baseline, LS mean, MMRM ([1]; OPC 50 mg, Week 24): 0.42
PDSS-2 total score, change from baseline, LS mean, MMRM ([1]; OPC 50 mg, Week 24): 0.0
MDS-UPDRS Part I total score, Week 24, Mean ([1]; OPC 50 mg, Week 24, N = 176): 6.7
MDS-UPDRS Part II + III total score, Week 24, Mean ([1]; OPC 50 mg, Week 24, N = 176): 35.7
MDS-UPDRS Part II total score, Week 24, Mean ([1]; OPC 50 mg, Week 24, N = 176): 8.5
MDS-UPDRS Part IV total score, Week 24, Mean (SD) ([1]; OPC 50 mg, Week 24, N = 176): 0.2 (0.8)
NMSS, Week 24, Mean ([1]; OPC 50 mg, Week 24, N = 176): 15.9
PDQ-39 total score, Week 24, Mean ([1]; OPC 50 mg, Week 24, N = 176): 15.4
PDSS-2 total score, Week 24, Mean ([1]; OPC 50 mg, Week 24, N = 176): 11.6
MDS-UPDRS Part I total score, Change from Baseline, Mean ([1]; OPC 50 mg, baseline to week 24): 0.3
MDS-UPDRS Part II + III total score, Change from Baseline, Mean ([1]; OPC 50 mg, baseline to week 24): −6.2
MDS-UPDRS Part II total score, Change from Baseline, Mean ([1]; OPC 50 mg, baseline to week 24): −0.4
MDS-UPDRS Part IV total score, Change from Baseline, Mean (SD) ([1]; OPC 50 mg, baseline to week 24): 0.2 (0.8)
NMSS, Change from Baseline, Mean ([1]; OPC 50 mg, baseline to week 24): −3.0
PDQ-39 total score, Change from Baseline, Mean ([1]; OPC 50 mg, baseline to week 24): −0.29
PDSS-2 total score, Change from Baseline, Mean ([1]; OPC 50 mg, baseline to week 24): −0.4
symptomatic reduction in MDS-UPDRS Part III total score compared to placebo ([1]; baseline to end of double-blind period, p=0.010): 2.2 points
symptomatic reduction in MDS-UPDRS Part II+III total score compared to placebo ([1]; baseline to end of double-blind period, p=0.036): 2.8 points
magnitude of the changes in MDS-UPDRS Part I, MDS-UPDRS Part IV or PDQ-39 total scores ([1]; both groups (opicapone and placebo), double-blind period): less than 0.4 points
NMSS Domain 7 (urinary) subdomain score vs placebo ([1]; especially at Week 12 and Week 24 (p<0.05)): Significant improvements
proportion of patients who reported motor complications ([1]; opicapone 50 mg, end of 24-week double-blind period): 5.5%
proportion of patients reporting an improvement in their clinical condition (PGI-I score) ([1]; opicapone 50 mg, end of double-blind period, p=0.026 vs placebo): 57.9%
proportion of patients with an improvement in clinical condition assessed by a clinician (CGI-I score) ([1]; opicapone 50 mg, end of double-blind period, p=0.493 vs placebo): 50.3%
WOQ-9: proportion of subjects whose dexterity improved post-study medication ([1]; opicapone treated group): 56.6%
WOQ-9: proportion of subjects whose muscle cramping improved post-study medication ([1]; opicapone treated group): 28.3%
WOQ-9: proportion of subjects whose slowness of movement improved post-study medication ([1]; opicapone treated group): 66.2%
WOQ-9: proportion of subjects whose stiffness improved post-study medication ([1]; opicapone treated group): 56.9%
WOQ-9: proportion of subjects whose tremors improved post-study medication ([1]; opicapone treated group): 65.5%
TEAE COVID-19; % [2]: (8.5) %
TEAE COVID-19; n [2]: 15
OFF-time change from baseline at the end of the open-label phase ([3]; group that switched from placebo to opicapone): 114.7 min
mean treatment effect versus placebo on absolute daily OFF-time ([3]; opicapone 25 mg, p=0.0106): -35.1 min
OFF-time change from baseline at the end of the open-label phase ([3]; opicapone 50 mg throughout double-blind and open-label treatment): -141.1 min
mean treatment effect versus placebo on absolute daily OFF-time ([3]; opicapone 50 mg, p<0.0001): -58.1 min
placebo-adjusted reduction of OFF time ([3]; opicapone 50 mg, onset of motor fluctuations within the previous 2 years, p=0.0003): -68.5 min
placebo-adjusted mean reduction of OFF time ([3]; opicapone 50 mg, patients only taking levodopa at baseline, p=0.02): -65.6 min
placebo-adjusted reduction of OFF time ([3]; opicapone 50 mg, patients taking less than 600 mg of levodopa per day, p=0.0005): -75.5 min
placebo adjusted reduction in OFF time ([4]; opicapone 25 mg dose group): -0.74 h
placebo adjusted reduction in OFF time ([4]; opicapone 50 mg dose): -0.62 h
mean reduction in OFF time measured by interview [5]: −2 hours per day
mean improvement in NMSS total score ([6]; 1-year open-label endpoint): −4.2
change in NMSS sleep/fatigue score ([6]; opicapone 50 mg dose, vs −0.5 with placebo): −1.2 points
increase of minimum plasma concentration (Cmin) for individual levodopa doses ([7]; human, in vivo): up to 2.6 fold
effect on levodopa systemic exposure and peak-to-trough fluctuations ([7]; once daily opicapone 50 mg, levodopa given every 3 and 4 hours): increased systemic exposure to levodopa
increase of levodopa systemic exposure ([8]; Cmax not changed): 2 fold
reduction of 3-O-methyldopa (3-OMD) exposure and Cmax [8]: up to 7 fold
reduction in erythrocyte COMT activity (erythrocyte COMT): ≤ 85%
brain levodopa levels [9]: sustained increase in brain levodopa levels
binding affinity to S-COMT (S-COMT): sub-picomolar
